The target of assay [1] is T1, AHR (UniProt P35869).
T1 sequence (P35869 1-848): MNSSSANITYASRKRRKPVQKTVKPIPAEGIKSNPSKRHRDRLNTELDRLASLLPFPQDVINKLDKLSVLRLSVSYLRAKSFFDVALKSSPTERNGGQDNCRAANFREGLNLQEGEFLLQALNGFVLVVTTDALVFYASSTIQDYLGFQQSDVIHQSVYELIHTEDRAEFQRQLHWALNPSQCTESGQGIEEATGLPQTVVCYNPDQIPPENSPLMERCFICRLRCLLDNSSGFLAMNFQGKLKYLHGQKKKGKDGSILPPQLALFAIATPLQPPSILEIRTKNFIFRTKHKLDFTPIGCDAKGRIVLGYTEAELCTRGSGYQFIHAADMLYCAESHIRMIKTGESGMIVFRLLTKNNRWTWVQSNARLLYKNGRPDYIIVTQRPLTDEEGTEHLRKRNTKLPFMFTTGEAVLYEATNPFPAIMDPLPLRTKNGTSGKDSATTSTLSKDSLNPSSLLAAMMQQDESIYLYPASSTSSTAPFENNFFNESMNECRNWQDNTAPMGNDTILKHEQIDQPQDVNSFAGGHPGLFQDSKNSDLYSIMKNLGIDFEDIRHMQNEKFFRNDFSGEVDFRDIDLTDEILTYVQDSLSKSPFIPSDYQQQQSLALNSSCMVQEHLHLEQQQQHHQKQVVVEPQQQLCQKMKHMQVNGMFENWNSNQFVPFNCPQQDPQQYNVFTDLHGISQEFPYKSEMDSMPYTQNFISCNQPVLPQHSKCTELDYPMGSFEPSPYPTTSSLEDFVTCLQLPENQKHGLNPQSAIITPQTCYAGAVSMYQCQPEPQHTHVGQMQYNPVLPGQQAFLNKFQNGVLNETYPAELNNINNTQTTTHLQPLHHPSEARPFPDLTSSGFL
Put plainly: DRE-Luciferase Reporter Assay (Example 1A). In kind it is cell-based. Further details: IC50. The note with it: concentration which inhibits half of the luciferase activity induced by an AHR activating ligand; murine (Hepa1-6, Hepa-1c1c7) or human (HepG2) DRE-luciferase reporter cells, cell line used not stated. The method, then: (§1) AHR binds to Dioxin Responsive Elements (DRE) upstream of genes that it activates. One measure of AHR activity is activation of a reporter gene, such as luciferase, downstream of one or multiple DRE elements. Luciferase activity will reflect activation and inhibition of AHR in the cells expressing his reporter.
(§2) Murine Hepa1-6 or Hepa-1c1c7 or other murine cell line with a DRE-luciferase reporter either stably or transiently transfected were plated in media in plates (96-well, 384-well or other plates) and incubated overnight at 37° C. in a CO2 incubator. Likewise, human HepG2 or other human cell line with a DRE-luciferase reporter either stably or transiently transfected were plated in media in plates (96-well, 384-well or other plates) and incubated overnight at 37° C. in a CO2 incubator.
The next day, an AHR activating ligand, such as TCDD, kynurenine, ITE (2-(1H-indole-3-ylcarbonyl)-4-thiazolecarboxylic methyl ester), VAF347, BNF (beta-naphthoflavone), FICZ (6-formylindolo(3,2-b) carbazole or other AHR ligands, was added with or without AHR antagonist.
(§3) Cells were incubated for 4, 15 or 24 hours or another time point and then lysed for determination of luciferase activity as a read-out of the AHR activation or inhibition. Luciferase was measured with a commercial kit such as the Promega Luciferase kit or any kit or reagents that provide the luciferin substrate for measuring luciferase activity. The level of luciferase with only activating ligand added was the maximum signal while the luciferase with no ligand was the minimum signal. IC50 values were determined as the concentration which inhibits half of the luciferase activity.

Assay [2] deals with T1, AHR. Put plainly: DRE-Luciferase Reporter Assay (Alternate Method, Example 1B). In kind it is cell-based. Set-up: IC50; other: alternate method: compound and agonist added at plating or after overnight incubation; murine (Hepa1-6, He). Conditions: alternate method: compound and agonist added at plating or after overnight incubation; murine (Hepa1-6, Hepa-1c1c7) or human (HepG2) DRE-luciferase reporter cells, cell line used not stated. The procedure:
as §1
as §2, with “incubator or compound and agonist were added at the time of plating.” for “incubator.”
At the time that cells are plated or following incubation overnight, an AHR activating ligand, such as TCDD, kynurenine, ITE (2-(1H-indole-3-ylcarbonyl)-4-thiazolecarboxylic methyl ester), VAF347, BNF (beta-naphthoflavone), FICZ (6-formylindolo(3,2-b) carbazole or other AHR ligands, was added with or without AHR antagonist.
as §3
(In general: A reporter such as luciferase makes a cellular process visible.)

One may read the IC50 as the midpoint of a concentration-inhibition curve. Low readings indicate inhibition by little substance, high ones a need for much substance. Consider `Cc1cc(C(=O)N2CCc3ccccc32)ccc1NC(=O)c1ccnn1C` [I-2], for which the IC50 against AHR [1] is over 1500 nM.

In the case of `Cc1ccccc1NCc1ccc(NC(=O)c2ccnn2C)c(C)n1` [I-15, 2-Methyl-N-[2-methyl-6-[(2-methylanilino)methyl]-3-pyridyl]pyrazole-3-carboxamide], the half-inhibitory concentration (IC50) at AHR [1] lay within 1000 to 1500 nM.

In the case of `Cc1cc(C(=O)n2ccc3ccccc32)ccc1NC(=O)c1ccnn1C` [I-4], on AHR [1], the IC50 was over 1500 nM.

Turning to `Cc1cc(-c2cc3ccccc3cn2)ccc1NC(=O)c1ccnn1C` [I-31], the concentration for half-maximal inhibition (IC50) on AHR [1] was over 1500 nM.

With `Cc1cc(C2OC2c2ccccc2C)ccc1NC(=O)c1ccnn1C` (stereo not shown) [I-23, 2-Methyl-N-[2-methyl-4-[3-(o-tolyl)oxiran-2-yl]phenyl]pyrazole-3-carboxamide], the IC50 on AHR [1] is under 500 nM.

Take `Cc1ccccc1-c1ccc2cc(NC(=O)c3ccnn3C)ccc2n1` [I-30]: on AHR [1], the IC50 is over 1500 nM.

At AHR [1], `Cc1cc(C(=O)Nc2ncccc2C)ccc1NC(=O)c1ccnn1C` [I-3] returned an IC50 of over 1500 nM.

Regarding `Cc1ccccc1/C=C/c1ccc(NC(=O)c2ccnn2C)c(C)c1` [I-5, (E)-1-methyl-N-(2-methyl-4-(2-methylstyryl)phenyl)-1H-pyrazole-5-carboxamide], the IC50 against AHR [1] is under 500 nM.

As to `Cc1cc(C(=O)N2CCCc3ccccc32)ccc1NC(=O)c1ccnn1C` [I-1], the IC50 against AHR [1] was over 1500 nM.

Consider `Cc1cc(/C=C/c2cccnc2C)ccc1NC(=O)c1ccnn1C` [I-19], for which the half-inhibitory concentration (IC50) on AHR [1] is over 1500 nM.

In the case of `Cc1ccccc1/N=N/c1ccc(NC(=O)c2ccnn2C)cc1C` [I-24, 2-Methyl-N-[3-methyl-4-[(E)-o-tolylazo]phenyl]pyrazole-3-carboxamide], the IC50 against AHR [1] was under 500 nM.

In the case of `Cc1cc(-c2ccc3ccccc3c2)ccc1NC(=O)c1ccnn1C` [I-32], on AHR [1], the IC50 is over 1500 nM.

Regarding `Cc1ccccc1/C=C/c1ccc(NC(=O)c2cncn2C)c(C)c1` [I-37], the IC50 against AHR [1] was over 1500 nM.

Compound `Cc1ccccc1CCc1ccc(NC(=O)c2ccnn2C)c(C)c1` [I-6, 1-methyl-N-(2-methyl-4-(2-methylphenethyl)phenyl)-1H-pyrazole-5-carboxamide] came in with a 50% inhibitory concentration (IC50) at AHR [1] of over 1500 nM.

On AHR [1], `Cc1cc(/C=C/c2ccccc2)ccc1NC(=O)c1ccnn1C` [I-20, 2-Methyl-N-[2-methyl-4-[(E)-styryl]phenyl]pyrazole-3-carboxamide] yielded a concentration for half-maximal inhibition (IC50) of under 500 nM.

Consider `Cc1cc(C2OC2c2ccccc2)ccc1NC(=O)c1ccnn1C` (stereo not shown) [I-21], for which, on AHR [1], the IC50 is over 1500 nM.

`Cc1ccccc1NCc1ccc(NC(=O)c2ccnn2C)c(C)c1` [I-11, 1-methyl-N-(2-methyl-4-((o-tolylamino)methyl)phenyl)-1H-pyrazole-5-carboxamide] yielded an IC50 on AHR [1] of over 1500 nM.

On to `Cc1cc(/N=N/c2ncccc2C)ccc1NC(=O)c1ccnn1C` [I-26], for which the IC50 against AHR [1] was over 1500 nM.

Take `Cc1ccccc1NC(=O)c1ccc(NC(=O)c2ccnn2C)c(C)n1` [I-12, 6-Methyl-5-(1-methyl-1H-pyrazole-5-carboxamido)-N-(o-tolyl)picolinamide]: the IC50 against AHR [1] is 500 to 1000 nM.

On to `Cc1ccccc1/C=C\c1ccc(NC(=O)c2ccnn2C)c(C)c1` [I-7, (Z)-1-methyl-N-(2-methyl-4-(2-methylstyryl)phenyl)-1H-pyrazole-5-carboxamide], for which the IC50 at AHR [1] was over 1500 nM.

`Cc1cc(COc2ccccc2C)ccc1NC(=O)c1ccnn1C` [I-18, 2-Methyl-N-[2-methyl-4-[(2-methylphenoxy)methyl]phenyl]pyrazole-3-carboxamide]: the half-inhibitory concentration (IC50) at AHR [1] is under 500 nM.

At AHR [1], `Cc1ccccc1NC(=O)c1ccc(NC(=O)c2ccnn2C)c(C)c1` [I-8, 1-methyl-N-(2-methyl-4-(o-tolylcarbamoyl)phenyl)-1H-pyrazole-5-carboxamide] gave an IC50 of over 1500 nM.

Consider `Cn1nccc1C(=O)Nc1ccc2nc(-c3ccccc3)ccc2c1` [I-22, 2-Methyl-N-(2-phenyl-6-quinolyl)pyrazole-3-carboxamide], for which, at AHR [1], the concentration for half-maximal inhibition (IC50) was under 500 nM.

On AHR [1], `Cc1cc(C(=N)Nc2ncccc2C)ccc1NC(=O)c1ccnn1C` [I-13] registered an IC50 of over 1500 nM.

On to `Cc1ccccc1/C=C/c1ccc(NC(=O)c2ccn[nH]2)c(C)c1` [I-36], for which the IC50 against AHR [1] is over 1500 nM.

Turning to `Cc1ccccc1/N=N/c1ccc(NC(=O)c2ccccn2)c(C)c1` [I-14], the 50% inhibitory concentration (IC50) against AHR [1] is over 1500 nM.

For the compound `Cc1ccccc1C#Cc1ccc(NC(=O)c2ccnn2C)c(C)c1` [I-29, 2-Methyl-N-[2-methyl-4-[2-(o-tolyl)ethynyl]phenyl]pyrazole-3-carboxamide], the 50% inhibitory concentration (IC50) at AHR [1] is under 500 nM.

`Cc1cc(NC(=O)c2ccccc2C)ccc1NC(=O)c1ccnn1C` [I-9, 1-methyl-N-(2-methyl-4-(2-methylbenzamido)phenyl)-1H-pyrazole-5-carboxamide] displayed a half-inhibitory concentration (IC50) on AHR [1] of over 1500 nM.

`Cc1ccccc1CNc1ccc(NC(=O)c2ccnn2C)c(C)c1` [I-10, 1-methyl-N-(2-methyl-4-((2-methylbenzyl)amino)phenyl)-1H-pyrazole-5-carboxamide] returned an IC50 on AHR [1] of over 1500 nM.

Compound `Cc1ccccc1/C=C/c1ccc(NC(=O)c2ccnn2C)cc1` [I-27, 2-Methyl-N-[4-[(E)-2-(o-tolyl)vinyl]phenyl]pyrazole-3-carboxamide] registered a 50% inhibitory concentration (IC50) against AHR [1] of 500 to 1000 nM.

`Cc1cc(N)ccc1NC(=O)c1ccnn1C` [I-16] had an IC50 on AHR [1] of over 1500 nM.

`Cc1ccccc1/N=N/c1ccc(C(=O)Nc2ccnn2C)c(C)c1` [I-25, 2-Methyl-N-(2-methylpyrazol-3-yl)-4-[(E)-o-tolylazo]benzamide]: the IC50 against AHR [1] is under 500 nM.

For `Cn1nccc1C(=O)Nc1ccc2cc(-c3cccc(C(F)(F)F)c3)cnc2c1` [I-84, 2-Methyl-N-[3-[3-(trifluoromethyl)phenyl]-7-quinolyl]pyrazole-3-carboxamide], at AHR [2], the concentration for half-maximal inhibition (IC50) was under 500 nM.

Take `Cn1nccc1C(=O)Nc1ccc2cc(-c3ccc(N4CCOCC4)cc3)cnc2c1` [I-80, 2-Methyl-N-[3-(4-morpholinophenyl)-7-quinolyl]pyrazole-3-carboxamide]: the IC50 at AHR [2] is over 1500 nM.

The values above are taken from US11555026B2, “AHR inhibitors and uses thereof” (Ikena Oncology, Inc., priority 2017, dated 2023).
